Results: the NIST ThermoML archive (doi:10.1016/j.fluid.2010.03.017)
Numbers after ± are expanded uncertainties.

Legend:
[1] = cn = amount concentration of the nth substance listed, in mol/dm3; conditions: 101 kPa, Liquid
[2] = specific heat capacity at constant pressure; cn = amount concentration of the nth substance listed, in mol/dm3; conditions: 101 kPa, Liquid, heat flux microcalorimetry

| Structure (SMILES) | mass density ([1]; 308.65 K, c2 = 0) [kg/m3] | mass density ([1]; 311.65 K, c2 = 0) [kg/m3] | mass density ([1]; 314.65 K, c2 = 0) [kg/m3] | specific heat capacity ([2]; 308.65 K, c2 = 0) [J/K/kg] | specific heat capacity ([2]; 311.65 K, c2 = 0) [J/K/kg] | specific heat capacity ([2]; 314.65 K, c2 = 0) [J/K/kg] | mass density ([1]; 308.65 K, c1 = 0.005) [kg/m3] | mass density ([1]; 308.65 K, c1 = 0.01) [kg/m3] | mass density ([1]; 308.65 K, c1 = 0.02) [kg/m3] | mass density ([1]; 308.65 K, c1 = 0.05) [kg/m3] | mass density ([1]; 308.65 K, c1 = 0.1) [kg/m3] | mass density ([1]; 311.65 K, c1 = 0.005) [kg/m3] | mass density ([1]; 311.65 K, c1 = 0.01) [kg/m3] | mass density ([1]; 311.65 K, c1 = 0.02) [kg/m3] | mass density ([1]; 311.65 K, c1 = 0.05) [kg/m3] | mass density ([1]; 311.65 K, c1 = 0.1) [kg/m3] | mass density ([1]; 314.65 K, c1 = 0.005) [kg/m3] | mass density ([1]; 314.65 K, c1 = 0.01) [kg/m3] | mass density ([1]; 314.65 K, c1 = 0.02) [kg/m3] | mass density ([1]; 314.65 K, c1 = 0.05) [kg/m3] | further results |
| --- | --- | --- | --- | --- | --- | --- | --- | --- | --- | --- | --- | --- | --- | --- | --- | --- | --- | --- | --- | --- | --- |
| CC#N [acetonitrile] + [Cl-].c1ccc([P+](c2ccccc2)(c2ccccc2)c2ccccc2)cc1 | 765.82 ± 2 | 762.77 ± 2 | 759.726 ± 2.1 | 2274.3 ± 45 | 2280.4 ± 46 | 2286.5 ± 46 |  |  |  |  |  |  |  |  |  |  |  |  |  |  |  |
| CCO [ethanol] + [Cl-].c1ccc([P+](c2ccccc2)(c2ccccc2)c2ccccc2)cc1 | 775.93 ± 1.9 | 773.4 ± 1.9 | 770.84 ± 2 | 2592.8 ± 52 | 2653.8 ± 53 | 2694.1 ± 54 |  |  |  |  |  |  |  |  |  |  |  |  |  |  |  |
| CO [methanol] + [Cl-].c1ccc([P+](c2ccccc2)(c2ccccc2)c2ccccc2)cc1 | 776.519 ± 1.9 | 773.896 ± 1.9 | 771.1 ± 2 | 2554.5 ± 51 | 2577 ± 52 | 2621 ± 52 |  |  |  |  |  |  |  |  |  |  |  |  |  |  |  |
| [Cl-].c1ccc([P+](c2ccccc2)(c2ccccc2)c2ccccc2)cc1 [tetraphenylphosphonium chloride] + CC#N |  |  |  |  |  |  | 767.478 ± 2 | 768.43 ± 2 | 772.35 ± 2 | 776.18 ± 1.9 | 784.14 ± 1.9 | 764.4 ± 2 | 765.22 ± 2 | 769.19 ± 2 | 773.42 ± 1.9 | 780.77 ± 1.9 | 762.76 ± 2 | 762.76 ± 2 | 766.82 ± 2 | 770.87 ± 2 | mass density ([1]; 314.65 K, c1 = 0.1): 777.19 ± 1.9 kg/m3; specific heat capacity ([2]; 308.65 K, c1 = 0.005): 2269.4 ± 45 J/K/kg; specific heat capacity ([2]; 308.65 K, c1 = 0.01): 2269.1 ± 45 J/K/kg; specific heat capacity ([2]; 308.65 K, c1 = 0.02): 2258.9 ± 45 J/K/kg; specific heat capacity ([2]; 308.65 K, c1 = 0.05): 2255.3 ± 45 J/K/kg; specific heat capacity ([2]; 308.65 K, c1 = 0.1): 2238.7 ± 45 J/K/kg; specific heat capacity ([2]; 311.65 K, c1 = 0.005): 2275.5 ± 46 J/K/kg; specific heat capacity ([2]; 311.65 K, c1 = 0.01): 2277 ± 46 J/K/kg; specific heat capacity ([2]; 311.65 K, c1 = 0.02): 2267.8 ± 45 J/K/kg; specific heat capacity ([2]; 311.65 K, c1 = 0.05): 2265.6 ± 45 J/K/kg; specific heat capacity ([2]; 311.65 K, c1 = 0.1): 2250.6 ± 45 J/K/kg; specific heat capacity ([2]; 314.65 K, c1 = 0.005): 2281.3 ± 46 J/K/kg; specific heat capacity ([2]; 314.65 K, c1 = 0.01): 2282.6 ± 46 J/K/kg; specific heat capacity ([2]; 314.65 K, c1 = 0.02): 2274.3 ± 45 J/K/kg; specific heat capacity ([2]; 314.65 K, c1 = 0.05): 2267.5 ± 45 J/K/kg; specific heat capacity ([2]; 314.65 K, c1 = 0.1): 2257.9 ± 45 J/K/kg |
| [Cl-].c1ccc([P+](c2ccccc2)(c2ccccc2)c2ccccc2)cc1 [tetraphenylphosphonium chloride] + CCO |  |  |  |  |  |  | 777.31 ± 1.9 | 778.02 ± 1.9 | 778.83 ± 1.9 | 784.24 ± 1.9 | 791.62 ± 1.8 | 775.32 ± 1.9 | 775.16 ± 1.9 | 776.11 ± 1.9 | 781.91 ± 1.9 | 789.98 ± 1.9 | 772.48 ± 1.9 | 772.21 ± 1.9 | 773.38 ± 1.9 | 779.58 ± 1.9 | mass density ([1]; 314.65 K, c1 = 0.1): 787.77 ± 1.9 kg/m3; specific heat capacity ([2]; 308.65 K, c1 = 0.005): 2520.9 ± 50 J/K/kg; specific heat capacity ([2]; 308.65 K, c1 = 0.01): 2545.7 ± 51 J/K/kg; specific heat capacity ([2]; 308.65 K, c1 = 0.02): 2549.3 ± 51 J/K/kg; specific heat capacity ([2]; 308.65 K, c1 = 0.05): 2555.5 ± 51 J/K/kg; specific heat capacity ([2]; 308.65 K, c1 = 0.1): 2570 ± 51 J/K/kg; specific heat capacity ([2]; 311.65 K, c1 = 0.005): 2581.5 ± 52 J/K/kg; specific heat capacity ([2]; 311.65 K, c1 = 0.01): 2600.7 ± 52 J/K/kg; specific heat capacity ([2]; 311.65 K, c1 = 0.02): 2606.3 ± 52 J/K/kg; specific heat capacity ([2]; 311.65 K, c1 = 0.05): 2607.1 ± 52 J/K/kg; specific heat capacity ([2]; 311.65 K, c1 = 0.1): 2623 ± 52 J/K/kg; specific heat capacity ([2]; 314.65 K, c1 = 0.005): 2627.1 ± 52 J/K/kg; specific heat capacity ([2]; 314.65 K, c1 = 0.01): 2638.3 ± 53 J/K/kg; specific heat capacity ([2]; 314.65 K, c1 = 0.02): 2650.8 ± 53 J/K/kg; specific heat capacity ([2]; 314.65 K, c1 = 0.05): 2650 ± 53 J/K/kg; specific heat capacity ([2]; 314.65 K, c1 = 0.1): 2633.7 ± 53 J/K/kg |
